Reference: patent US6846843B2, “β-thioamino acids” (Gruenenthal GmbH, priority 2000, dated 2005)
pIC50: −log10 of the molar value. Counter-ions that a name gives are not always drawn. Like-named read-outs stand apart in the source and are kept apart here.

Assays:
[1] = system: gabapentin binding site; assay: Gabapentin binding assay (displacement of gabapentin from its binding site); conditions: for % Inhibition (Concn.): inhibition of gabapentin binding; for pIC50: displacement of gabapentin, read-out: Affinity (IC50)
Description: Gabapentin is used in the binding assay in order to determine the binding and affinities of the selected compounds. The affinity of the compounds according to the invention is measured via the displacement of gabapentin from its binding site.

[2] = system: formalin-induced nociception; assay: Formalin test on mice (second phase); type: in vivo; conditions: mouse, second phase, read-out: Mouse Formalin Test ED50
Description: The investigations to determine the antinociceptive action of the compounds according to the invention were carried out by the formalin test on male albino mice (NMRI, 25-35 g, Iffa Credo, Belgium).
In the formalin test the first (early) phase (0-15 minutes after the formalin injection) and the second (late) phase (15-60 minutes after the formalin injection) differ (D. Dubuisson et al., Pain, Vol. 4, pp. 161-174 (1977)). The early phase, being a direct reaction to the formalin injection, constitutes a model for acute pain, whereas the late phase is regarded as a model for persistent (chronic or inflammatory) pain (T. J. Coderre et al., Pain, Vol. 52, pp. 259-285 (1993)).
The compounds according to the invention were investigated in the second phase of the formalin test in order to obtain information on the effects of substances in chronic/inflammatory pain.
By means of a single subcutaneous formalin injection (20 μl, 1% aqueous solution) into the dorsal side of the right-hand rear paw, a nociceptive reaction was induced in unconstrained experimental animals, manifested in a noticeable licking and biting of the affected paw. The nociceptive behavior during the investigation period in the second (late) phase of the formalin test was continuously monitored by observing the animals. The pain reaction was quantified by totalling the time in seconds during which the animals continued to lick and bite the affected paw during the investigation period. After injecting substances that have an antinociceptive effect in the formalin test, the aforedescribed behavior pattern of the animals is reduced or possibly even eliminated. Corresponding to the substance tests, in which the animals had been injected with the test substance before formalin, the control animals were injected with a vehicle, i.e. solvent (e.g. 0.9% NaCl solution) before the formalin injection. The behavior of the animals after administration of the substance (n=10 per substance dose) was compared with a control group (n=10).
Based on the quantification of the pain reaction, the effect of the substance in the formalin test was determined as the change in the control in percentage terms. The ED50 calculations were carried out by means of regression analysis. The application time before the formalin injection (intraperitoneally: 15 minutes, intravenously: 5 minutes) was chosen depending on the type of application of the compounds according to the invention.

[3] = system: phenylquinone-induced writhing reactions; assay: Phenylquinone-induced writhing test in mice; type: in vivo; conditions: iv; mouse, i.v., 10 minutes before phenylquinone; read-out: Writhing Mouse i.v. ED50
Description: The antinociceptive effectiveness of the compounds according to the invention was investigated in mice using the phenylquinone-induced writhing test as modified by I. C. Hendershot and J. Forsaith, J. Pharmacol. Exp. Ther. 125, 237-240 (1959)). Male NMRI mice weighing 25-30 g were used for this purpose. Groups of 10 animals per substance dose were given intraperitoneally 10 minutes after intravenous administration of a compound according to the invention, 0.3 ml/mouse of a 0.02% aqueous solution of phenylquinone (phenylbenzoquinone, from Sigma, Deisenhofen; solution prepared by addition of 5% of ethanol and storage in a water bath at 45° C.). The animals were placed individually in observation cages. The number of pain-induced stretching movements (so-called writhing reactions=contortion of the body accompanied by stretching of the rear extremities) 5-20 minutes after administration of the phenylquinone were counted using a push-button counter. Animals that had received physiological saline solution i.v. and phenylquinone […]. served as controls.
All substances were tested in the standard dose of 10 mg/kg.

Row | Structure (SMILES) | % Inhibition (Concn.) [1] | pIC50 [1] | also measured
1 | CC(S)(c1cccs1)C(N)C(=O)O.Cl (racemic) [Compound 29, rac-2-amino-3-mercapto-3-thiophen-2-yl-butanoic acid hydrochloride] | 30% (10^−5 μm) | – | –
2 | CCCC(C)(S)C(N)C(=O)O.Cl (racemic) [Compound 2, rac-2-amino-3-mercapto-3-methylhexanoic acid hydrochloride] | – | 6.78 | ED50 ([2]; iv, i.v.): 158 mg/kg
3 | CCCC(S)(CC)C(N)C(=O)O.Cl (racemic) [Compound 9, rac-amino-3-ethyl-3-mercaptohexanoic acid hydrochloride] | 97.5% | 6.47 | –
4 | CC1CCCC(S)(C(N)C(=O)O)C1 (racemic) [Compound 32, rac-amino-(1-mercapto-3-methylcyclohexyl)ethanoic acid hydrochloride] | – | 6.65 | –
5 | CC1CCCCC1(S)C(N)C(=O)O (racemic) [Compound 33, rac-amino-(1-mercapto-2-methylcyclohexyl)ethanoic acid hydrochloride] | – | 6.28 | –
6 | CC(S)(C1CCC1)C(N)C(=O)O (racemic) [Compound 27, rac-2-amino-3-cyclobutyl-3-mercapto-butanoic acid hydrochloride] | – | 6.23 | –
7 | CCC(C)(S)C(N)C(=O)O (racemic) [Compound 1, rac-2-amino-3-mercapto-3-methylpentanoic acid hydrochloride] | – | 6.57 | –
8 | CCCC(S)(CCC)C(N)C(=O)O (racemic) [Compound 17, rac-2-amino-3-mercapto-3-propyl-3-hexanoic acid hydrochloride] | – | 5.63 | –
9 | CCCCCCC(C)(S)C(N)C(=O)O.Cl (racemic) [Compound 5, rac-2-amino-3-mercapto-3-methylnonanoic acid hydrochloride] | – | – | pIC50 ([1]; hydrochloride): 7.15; ED50 ([2]; ip, i.p.): 54 mg/kg
10 | CCCCCCC(C)(S)C(N)C(=O)O (racemic) [Compound 12, rac-threo-2-amino-3-mercapto-3-methylnonanoic acid hydrochloride] | – | – | pIC50 ([1]; hydrochloride): 7.15; ED50 ([2]; ip, i.p.): 78 mg/kg
11 | CCCCC(S)(CC)C(N)C(=O)O (racemic) [Compound 30, rac-2-amino-3-ethyl-3-mercaptoheptanoic acid hydrochloride] | – | 6.50 | –
12 | Cl.NC(C(=O)O)C1(S)CCSCC1 (racemic) [Compound 35, rac-amino-(4-mercaptotetrahydrothiopyran-4-yl)ethanoic acid hydrochloride] | 84% (10^−5 μm) | – | –
13 | CCCCCCCC(C)(SCc1ccccc1)C(N)C(=O)O.Cl (racemic) [Compound 23, rac-2-amino-3-benzylsulfanyl-3-methyldecanoic acid hydrochloride] | 91% (10^−5 μm) | – | –
14 | CC(S)(C1CCCCC1)C(N)C(=O)O (racemic) [Compound 28, rac-2-amino-3-cyclohexyl-3-mercaptobutanoic acid hydrochloride] | – | 5.88 | –
15 | CCCCCC(C)(S)C(N)C(=O)O (racemic) [Compound 14, rac-threo-2-amino-3-mercapto-3-methyloctanoic acid hydrochloride] | – | – | pIC50 ([1]; hydrochloride): 7.00
16 | CCCCCC(C)(SCc1ccccc1)C(N)C(=O)O (racemic) [Compound 16, rac-threo-2-amino-3-benzylsulfanyl-3-methyl-octanoic acid hydrochloride] | 93% | 5.74 | –
17 | CC1CCC(S)(C(N)C(=O)O)CC1 (racemic) [Compound 34, rac-amino-(1-mercapto-4-methylcyclohexyl)ethanoic acid hydrochloride] | – | 6.00 | –
18 | CCCCC(C)(S)C(N)C(=O)O.Cl (racemic) [Compound 3, rac-2-amino-3-mercapto-3-methylheptanoic acid hydrochloride] | 99.7% | 6.55 | –
19 | CCCCCCCC(C)(S)C(N)C(=O)O (racemic) [Compound 11, rac-erythro-2-amino-3-mercapto-3-methyldecanoic acid hydrochloride] | – | – | pIC50 ([1]; hydrochloride): 6.92
20 | Cl.NC(C(=O)O)C(S)(c1ccc(F)cc1)C1CC1 (racemic) [Compound 25, rac-2-amino-3-cyclopropyl-3-(4-fluorophenyl)-3-mercapto-propionic acid hydrochloride] | 40% (10^−5 μm) | – | –
21 | NC(C(=O)O)C1(S)CCCCC1 (racemic) [Compound 31, rac-amino-(1-mercaptocyclohexyl)ethanoic acid hydrochloride] | – | 6.73 | –
22 | CCCCCCC(C)(S)C(N)C(=O)O (racemic) [Compound 13, rac-erythro-2-amino-3-mercapto-3-methylnonanoic acid hydrochloride] | – | – | pIC50 ([1]; hydrochloride): 7.52
23 | CC(S)(C1CC1)C(N)C(=O)O (racemic) [Compound 26, rac-2-amino-3-cyclopropyl-3-mercaptobutanoic acid hydrochloride] | – | 6.15 | –
24 | Cl.NC(C(=O)O)C1(S)CCCCCC1 (racemic) [Compound 18, rac-amino-(1-mercaptocycloheptyl)acetic acid hydrochloride] | 15% (10^−5 μm) | – | –
25 | CCC(S)(CC)C(N)C(=O)O (racemic) [Compound 7, rac-2-amino-3-ethyl-3-mercaptopentanoic acid hydrochloride] | – | 6.59 | –
26 | CCC(C)C(C)(S)C(N)C(=O)O (racemic) [Compound 37, rac-2-amino-3-mercapto-3,4-dimethylhexanoic acid hydrochloride] | – | 6.71 | –
27 | CC(C)C(C)(S)C(N)C(=O)O.Cl (racemic) [Compound 36, rac-2-amino-3-mercapto-3,4-dimethylpentanoic acid hydrochloride] | 88% (10^−5 μm) | – | –
28 | CCCCCCCC(C)(S)C(N)C(=O)O.Cl (racemic) [Compound 10, rac-threo-2-amino-3-mercapto-3-methyldecanoic acid hydrochloride] | – | – | pIC50 ([1]; hydrochloride): 6.82; ED50 ([2]; ip, i.p.): 105 mg/kg
29 | Cl.NC(C(=O)O)C1(S)CCCC1 (racemic) [Compound 8, rac-amino-(1-mercaptocyclopentyl)acetic acid hydrochloride] | – | 6.82 | ED50 [3]: 70 mg/kg; ED50 ([2]; iv, i.v.): 79 mg/kg

More lines, main results first:

Row | % Inhibition (Concn.) [1] | pIC50 [1] | Structure (SMILES) | also measured
30 | – | 5.52 | CCCCCCC(C)(SCCC)C(N)C(=O)O (racemic) [Compound 20, rac-2-amino-3-methyl-3-propylsulfanylnonanoic acid hydrochloride] | –
31 | 92% (10^−5 μm) | – | CCCCCC(C)(SCC)C(N)C(=O)O.Cl (racemic) [Compound 15, rac-2-amino-3-ethylsulfanyl-3-methyloctanoic acid hydrochloride] | –
32 | 90% (10^−5 μm) | – | CCCCCCCC(C)(SCC)C(N)C(=O)O.Cl (racemic) [Compound 24, rac-2-amino-3-ethylsulfanyl-3-methyldecanoic acid hydrochloride] | –
33 | – | 6.57 | CCCCCCC(C)(SCC)C(N)C(=O)O (racemic) [Compound 19, rac-2-amino-3-ethylsulfanyl-3-methylnonanoic acid hydrochloride] | –
34 | – | 4.91 | CCCCCCSC(C)(CCCCCC)C(N)C(=O)O (racemic) [Compound 21, rac-2-amino-3-hexylsulfanyl-3-methylnonanoic acid hydrochloride] | –
35 | – | 6.47 | CCCCCCC(C)(SCc1ccccc1)C(N)C(=O)O (racemic) [Compound 22, rac-2-amino-3-benzylsulfanyl-3-methyl-nonanoic acid hydrochloride] | –
